Counter-ions that a name gives are not always drawn.
Test system: E. coli clinical isolates
Assay: screen of strains on agar plates (CPS ID 3 or Columbia agar)
Assay type: cell-based
Set-up: key to colour: Red, Green, Black or Purple mean strong colour; Red, Green, Black or Purple mean strong colour; Red, Green, Black or Purple mean strong colour; Red, Green, Black or Purple mean strong colour; +/− means less colour than strong; Tr means a trace of colour, less than +/−; — means no colour
Details: for colour: 37° C. 18 hours
Excerpt: In order to obtain a fuller picture of the sensitivity of the substrates, they were screened with 100 different clinical isolates of E. coli in a liquid medium containing FAC. The isolates were chosen at random from the Microbiology Department, Freeman Hospital, Newcastle Upon Tyne, UK. The effectiveness of the new substrates was compared with three other media which all contained indoxyl-β-D-glucuronides. One was a commercial medium, CPS ID 3 (bioMérieux SA, Lyon, France). […] This medium was employed as a control. Among the β-D-glucuronidase producing strains of E. coli there is a large variation in the quantity of the enzyme produced and it is almost certain that the CPS ID 3 medium has been rigorously optimised to allow good growth of all the target organisms and maximum expression of the target enzymes. Therefore, two indoxyl glucuronides, X-β-D-glucuronide CHA salt and Rose-β-D-glucuronide CHA salt were also tested in a simple agar medium to allow a direct comparison of the sensitivity of these Indoxyl glucuronides when used in a medium that has not been optimised for the growth of the target organism. The comparison of the results for Rose-β-D-glucuronide and the CPS ID 3 medium was of particular significance as the commercial medium also uses Rose-β-D-glucuronide for the detection of E. coli. For consistency, the four glucuronides were all chosen as their CHA salts. As already stated, it is not anticipated that the salt form is critical to their performance. Currently. X-β-D-glucuronide is often used as either the CHA salt or the sodium salt. Brenner and colleagues [K. P. Brenner et al, Appl. Environ. Microbiol., 59, 3534-3544, (1993)] found no difference in the performance of the CHA and sodium salt forms with their application using indoxyl-β-D-glucuronide, neither in respect of colour development nor in the recovery of E. coli.
The two indoxyl glucuronides used produce insoluble endpoints following hydrolysis, as does the CPS ID 3 medium. It was therefore necessary to test these two substrates on agar plates. In contrast, catechol-β-D-glucuronide (1) and DHN-β-D-glucuronide (2b) give much more soluble endpoints best suited to liquid media and were therefore tested in a broth medium. Each broth was prepared using proteose peptone (Oxoid, Basingstoke, UK) (2 g), NaCl (1 g) and FAC (100 mg) in DI water (180 mL). This mixture was autoclaved and cooled to room temperature before being dispensed into bijoux (100×1.8 mL). Catechol β-D-glucuronide CHA salt (1) or DHN-β-D-glucuronide CHA salt (2b) (60 mg) were each dissolved in water (20 mL) and filtered to sterilize before being aseptically dispensed into successive bijoux (0.2 mL) containing the broth solution. The broth/substrate solutions were then inoculated with bacterial suspensions made up to 0.5 McFarland standard (2 μL per bijoux). X-β-D-glucuronide CHA salt (Glycosynth Ltd, Warrington, UK) (10 mg) was dissolved in NMP (200 μL). Rose-β-D-glucuronide CHA salt (Glycosynth Ltd, Warrington, UK) (20 mg) was dissolved in NMP (200 μL). These solutions were then added to Columbia agar (Oxoid, Basingstoke, UK) (100 mL) and inoculated with bacterial suspensions made up to 0.5 McFarland standard (1 μL). The plates and broths were incubated at 37° C. for 18 hours in air.

[1] = 100 E. coli strains after 18 h incubation

## O=C(O)[C@H]1O[C@@H](Oc2c[nH]c3cc(Cl)ccc23)[C@H](O)[C@@H](O)[C@@H]1O [Rose-β-D-glucuronide CHA salt, 6-chloro-3-indolyl β-D-glucuronide]
[1]
  % Sensitivity: 81%
  Negative strains: 19
  Positive strains: 81
E. coli 260262P
  colour: Red
E. coli 260280Z
  colour: Red
E. coli 260310H
  colour: Red
E. coli 260313A
  colour: —
E. coli 260316T
  colour: —
E. coli 260327V
  colour: Red
E. coli 260330Y
  colour: Red
E. coli 260333P
  colour: —
E. coli 260345F
  colour: Red
E. coli 260348K
  colour: Red
E. coli 260354W
  colour: Red
E. coli 260364H
  colour: —
E. coli 260370C
  colour: Red
E. coli 260375E
  colour: Red
E. coli 260390B
  colour: —
E. coli 260396Z
  colour: Red
E. coli 260398Q
  colour: Red
E. coli 260400N
  colour: —
E. coli 260401Q
  colour: Red
E. coli 260402H
  colour: Red
E. coli 260404W
  colour: Red
E. coli 260405P
  colour: Red
E. coli 260406A
  colour: —
E. coli 260406Y
  colour: Red
E. coli 260407F
  colour: Red
E. coli 260408C
  colour: Red
E. coli 260411Z
  colour: Red
E. coli 260412Q
  colour: Red
E. coli 260414H
  colour: Red
E. coli 260415Y
  colour: Red
E. coli 260416W
  colour: —
E. coli 260417P
  colour: Red
E. coli 260422Y
  colour: Red
E. coli 260424P
  colour: Red
E. coli 260425A
  colour: Red
E. coli 260426F
  colour: Red
E. coli 260428T
  colour: Red
E. coli 260431N
  colour: Red
E. coli 260432E
  colour: Red
E. coli 260433H
  colour: Red
E. coli 260434Y
  colour: Red
E. coli 260435W
  colour: Red
E. coli 260436P
  colour: Red
E. coli 260437A
  colour: Tr. Red
E. coli 260438F
  colour: Red
E. coli 260439C
  colour: Red
E. coli 260440S
  colour: Red
E. coli 260441G
  colour: Red
E. coli 260458Y
  colour: Red
E. coli 260459W
  colour: Red
E. coli 260463D
  colour: Red
E. coli 260464G
  colour: Red
E. coli 260471B
  colour: —
E. coli 260478N
  colour: —
E. coli 260479Q
  colour: Red
E. coli 260480M
  colour: Red
E. coli 260481J
  colour: Red
E. coli 260483R
  colour: —
E. coli 260485D
  colour: Red
E. coli 260486L
  colour: Red
E. coli 260492J
  colour: Red
E. coli 260494B
  colour: Red
E. coli 260495R
  colour: —
E. coli 260497D
  colour: Red
E. coli 260502G
  colour: Red
E. coli 260503Z
  colour: Red
E. coli 260504N
  colour: Red
E. coli 260505Q
  colour: —
E. coli 260506E
  colour: Red
E. coli 260508Y
  colour: Red
E. coli 260509W
  colour: Red
E. coli 260510R
  colour: Red
E. coli 260511X
  colour: Red
E. coli 260514G
  colour: —
E. coli 260515Z
  colour: Red
E. coli 260521S
  colour: Red
E. coli 260522Z
  colour: Red
E. coli 260532S
  colour: Red
E. coli 260533G
  colour: Red
E. coli 260536Q
  colour: Red
E. coli 260537E
  colour: —
E. coli 260538H
  colour: —
E. coli 260539Y
  colour: Red
E. coli 260541R
  colour: Red
E. coli 260545G
  colour: Red
E. coli 260547N
  colour: Red
E. coli 260548Q
  colour: Red
E. coli 260549E
  colour: Red
E. coli 260553X
  colour: —
E. coli 260554D
  colour: Red
E. coli 260555L
  colour: Red
E. coli 260563B
  colour: Red
E. coli 260564R
  colour: Red
E. coli 260578D
  colour: —
E. coli 2603121P
  colour: —
E. coli 2604399E
  colour: Red
E. coli O157 non-toxigenic
  colour: —
In words
  colour of positive colonies: red colonies

Source: patent US9879303B2, “Chromogenic glucuronidase substrates and uses” (Glycosynth Limited, priority 2013, dated 2018)
